Assay results reported in US20130123255A1, “COMBINATION OF A PI3K INHIBITOR AND A MEK INHIBITOR” (CHUGAI SEIYAKU KABUSHIKI KAISHA, priority 2011, published 2013).

Legend:
[1] = tested on: ERK phosphorylation in HCT116 cells; assay: Western blot of MAPK pathway, ERK phosphorylation; format: cell-based
Description: (§1) To investigate the combination effect on PI3K and MAPK pathway, compound of formula (I) and compound of formula (II) were tested on HCT116 cells.
(§2) 5×10^5 of cells were treated with compound of formula (I) alone, compound of formula (II) alone or the combination thereof at 1 μM for 24 hours in 6-well plate. After that, HCT116 cells were lysed with Cell Lysis Buffer (Cell Signaling Technology) containing protease and phosphatase inhibitors. The lysates were denatured and then subjected to SDS-PAGE. After electroblotting, the polyvinylidene fluoride membranes were blocked with Blocking One (Nacalai Tesque) for 1 h. Membranes were then incubated with primary antibodies purchased from Cell Signaling Technology Inc., and anti-actin antibody purchased from Santa Cruz Biotechnology over night at 4° C., followed by washing three times with 0.1% Tween 20 (Nacalai Tesque) in TBS buffer (TBS-T buffer; TaKaRa Bio). This was followed by 0.5 to 1 h incubation at room temperature with secondary antibodies (Cell Signaling Technology). Then, membranes were washed four times with TBS-T buffer, followed by incubation with ECL or ECL-plus solutions (GE Healthcare). Signals were detected using LAS-4000 (Fujifilm) according to the manufacturer's instructions.

[2] = tested on: Akt phosphorylation in HCT116 cells; assay: Western blot of PI3K pathway, Akt phosphorylation; format: cell-based; settings: 1 μM, 24 hours, FIG. 3
Description: as §1, §2

Structure (SMILES)	phosphorylation of ERK [1]	phosphorylation of Akt [2]
O=C(NOCCO)c1cc(CN2OCCCC2=O)c(F)c(F)c1Nc1ccc(I)cc1F [compound of formula (I), 3,4-difluoro-2-(2-fluoro-4-iodo-phenylamino)-N-(2-hydroxy-ethoxy)-5-(3-oxo-[1,2]oxazinan-2-ylmethyl)-benzamide]	suppressed	–
CS(=O)(=O)N1CCc2c(-c3cnc(N)nc3)nc(N3CCOCC3)nc21 [compound of formula (II), 5-(7-methanesulfonyl-2-morpholin-4-yl-6,7-dihydro-5H-pyrrolo[2,3-d]pyrimidin-4-yl)-pyrimidin-2-ylamine]	–	suppressed
